Activity calls are given as the source filed them. Cut-off read from the data, not from the text of the source: actives have a measured IC50 and inactives only a lower limit.
target: Envelope glycoprotein gp160 (Human immunodeficiency virus 1, UniProt Q6QLK5); assay: inhibitors of HIV fusion peptide binding, primary screen, biochemical, uHTS, fluorescence dequenching (AID 1986)
Sequence (Q6QLK5 whole entry, the tested form may be a part): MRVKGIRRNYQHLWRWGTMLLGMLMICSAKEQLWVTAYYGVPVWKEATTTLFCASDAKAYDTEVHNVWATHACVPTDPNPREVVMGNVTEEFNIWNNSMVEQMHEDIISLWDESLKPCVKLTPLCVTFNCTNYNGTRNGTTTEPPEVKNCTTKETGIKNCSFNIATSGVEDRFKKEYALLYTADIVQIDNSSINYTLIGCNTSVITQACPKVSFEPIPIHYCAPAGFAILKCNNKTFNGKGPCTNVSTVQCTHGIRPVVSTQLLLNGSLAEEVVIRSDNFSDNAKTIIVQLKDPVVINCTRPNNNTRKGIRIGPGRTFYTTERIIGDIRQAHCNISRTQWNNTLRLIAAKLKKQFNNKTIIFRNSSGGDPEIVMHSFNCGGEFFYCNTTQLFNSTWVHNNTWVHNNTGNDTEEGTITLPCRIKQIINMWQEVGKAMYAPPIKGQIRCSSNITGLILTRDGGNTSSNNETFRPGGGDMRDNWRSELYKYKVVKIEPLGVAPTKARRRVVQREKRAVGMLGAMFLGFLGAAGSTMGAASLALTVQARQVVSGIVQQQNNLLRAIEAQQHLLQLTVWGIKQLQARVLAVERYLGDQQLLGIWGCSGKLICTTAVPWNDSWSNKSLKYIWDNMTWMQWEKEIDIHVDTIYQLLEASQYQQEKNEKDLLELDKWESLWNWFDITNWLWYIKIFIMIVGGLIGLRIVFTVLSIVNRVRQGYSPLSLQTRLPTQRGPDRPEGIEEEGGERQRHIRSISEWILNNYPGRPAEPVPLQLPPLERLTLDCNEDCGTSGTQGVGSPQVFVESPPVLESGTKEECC

SMILES	IC50
COc1ccc(OC)c(/C=C2\SC(=S)N(NS(=O)(=O)c3ccc(C)cc3)C2=O)c1	21.4 µM (active)
CC1=C(C#N)C(=O)NC(=O)/C1=C\c1ccc(-c2cc(C)c(C)cc2[N+](=O)[O-])o1	21.8 µM (active)
COc1ccc(-c2csc(NC(=O)CSc3nc(C)nc4sc(C(=O)O)c(C)c34)n2)cc1	9.37 µM (active)
